# Source: ChEMBL document CHEMBL3632478, “Design, synthesis and biological evaluation of imidazopyridine/imidazopyrimidine-benzimidazole conjugates as potential anticancer agents” (Medchemcomm, 2015)
# pIC50: −log10 of the molar value.
# Test system: A549
# Test: Cell cycle arrest in human A549 cells assessed as accumulation at G0/G1 phase at 1 uM after 48 hrs by propidium iodide based flow cytometry (reference value: 85.63%)
# Assay type: functional
# Conditions: not given
row,Structure (SMILES),Activity
1,COC(=O)Nc1nc2cc(C(=O)c3cccs3)ccc2[nH]1 [NOCODAZOLE],63.76%

# Test system: A549
# Test: Induction of apoptosis in human A549 cells assessed as dead cells at 1 uM after 48 hrs by annexin V-FITC and propidium iodide double staining based flow cytometric analysis (Rvb =0.07%)
# Assay type: functional
# Conditions: not given
row,Structure (SMILES),Activity
1,COC(=O)Nc1nc2cc(C(=O)c3cccs3)ccc2[nH]1 [NOCODAZOLE],0.04%

# Test system: A549
# Test: Cell cycle arrest in human A549 cells assessed as accumulation at G2/M phase at 1 uM after 48 hrs by propidium iodide based flow cytometry (reference value: 10.39%)
# Assay type: functional
# Conditions: not given
row,Structure (SMILES),Activity
1,COC(=O)Nc1nc2cc(C(=O)c3cccs3)ccc2[nH]1 [NOCODAZOLE],24.28%

# Test system: A549
# Test: Induction of apoptosis in human A549 cells assessed as viable cells at 1 uM after 48 hrs by annexin V-FITC and propidium iodide double staining based flow cytometric analysis (reference value: 99.79%)
# Assay type: functional
# Conditions: A549, 48 h, read-out: Activity
row,Structure (SMILES),viability at 1 µM
1,COC(=O)Nc1nc2cc(C(=O)c3cccs3)ccc2[nH]1 [NOCODAZOLE],87%

# Test system: DU-145
# Test: Antiproliferative activity against human DU145 cells after 48 hrs by MTT assay
# Assay type: functional, cell-based
# Conditions: DU-145, 48 h
row,pIC50,Structure (SMILES)
1,4.62,COc1ccc(-c2nc3ccccn3c2-c2nc3ccccc3[nH]2)cc1
2,4.86,COc1ccc(-c2nc3ncccn3c2-c2nc3ccc(F)cc3[nH]2)cc1

row,Structure (SMILES),pIC50
1,COC(=O)Nc1nc2cc(C(=O)c3cccs3)ccc2[nH]1 [NOCODAZOLE],6.60

# Test system: A549
# Test: Induction of apoptosis in human A549 cells assessed as late apoptotic cells at 1 uM after 48 hrs by annexin V-FITC and propidium iodide double staining based flow cytometric analysis (reference value: 0.14%)
# Assay type: functional
# Conditions: not given
row,Structure (SMILES),Activity
1,COC(=O)Nc1nc2cc(C(=O)c3cccs3)ccc2[nH]1 [NOCODAZOLE],1.29%

# Test system: B16
# Test: Antiproliferative activity against mouse B16 cells after 48 hrs by MTT assay
# Assay type: functional, cell-based
# Conditions: B16, 48 h
row,pIC50,Structure (SMILES)
1,< 4.52,COc1ccc(-c2nc3ccccn3c2-c2nc3ccccc3[nH]2)cc1
2,4.71,COc1ccc(-c2nc3ncccn3c2-c2nc3ccc(F)cc3[nH]2)cc1

row,Structure (SMILES),pIC50
1,COC(=O)Nc1nc2cc(C(=O)c3cccs3)ccc2[nH]1 [NOCODAZOLE],6.16

# Test system: A549
# Test: Cell cycle arrest in human A549 cells assessed as accumulation at sub G1 phase at 1 uM after 48 hrs by propidium iodide based flow cytometry (reference value: 0.65%)
# Assay type: functional
# Conditions: not given
row,Structure (SMILES),Activity
1,COC(=O)Nc1nc2cc(C(=O)c3cccs3)ccc2[nH]1 [NOCODAZOLE],9.23%

# Test system: A549
# Test: Cell cycle arrest in human A549 cells assessed as accumulation at S phase at 1 uM after 48 hrs by propidium iodide based flow cytometry (reference value: 3.59%)
# Assay type: functional
# Conditions: not given
row,Structure (SMILES),Activity
1,COC(=O)Nc1nc2cc(C(=O)c3cccs3)ccc2[nH]1 [NOCODAZOLE],0.69%

# Test system: A549
# Test: Antiproliferative activity against human A549 cells after 48 hrs by MTT assay
# Assay type: functional, cell-based
# Conditions: A549, 48 h
row,pIC50,Structure (SMILES)
1,4.64,COc1ccc(-c2nc3ccccn3c2-c2nc3ccccc3[nH]2)cc1
2,4.82,COc1ccc(-c2nc3ncccn3c2-c2nc3ccc(F)cc3[nH]2)cc1

row,Structure (SMILES),pIC50
1,COC(=O)Nc1nc2cc(C(=O)c3cccs3)ccc2[nH]1 [NOCODAZOLE],5.79

# Test system: HeLa
# Test: Antiproliferative activity against human HeLa cells after 48 hrs by MTT assay
# Assay type: functional, cell-based
# Conditions: not given
row,pIC50,Structure (SMILES)
1,4.69,COc1ccc(-c2nc3ccccn3c2-c2nc3ccccc3[nH]2)cc1
2,4.77,COc1ccc(-c2nc3ncccn3c2-c2nc3ccc(F)cc3[nH]2)cc1

row,Structure (SMILES),pIC50
1,COC(=O)Nc1nc2cc(C(=O)c3cccs3)ccc2[nH]1 [NOCODAZOLE],5.65

# Molecular target: Tubulin (Sus scrofa) (UniProt P02554+P02550)
# Sequence (P02550 whole entry, looked up): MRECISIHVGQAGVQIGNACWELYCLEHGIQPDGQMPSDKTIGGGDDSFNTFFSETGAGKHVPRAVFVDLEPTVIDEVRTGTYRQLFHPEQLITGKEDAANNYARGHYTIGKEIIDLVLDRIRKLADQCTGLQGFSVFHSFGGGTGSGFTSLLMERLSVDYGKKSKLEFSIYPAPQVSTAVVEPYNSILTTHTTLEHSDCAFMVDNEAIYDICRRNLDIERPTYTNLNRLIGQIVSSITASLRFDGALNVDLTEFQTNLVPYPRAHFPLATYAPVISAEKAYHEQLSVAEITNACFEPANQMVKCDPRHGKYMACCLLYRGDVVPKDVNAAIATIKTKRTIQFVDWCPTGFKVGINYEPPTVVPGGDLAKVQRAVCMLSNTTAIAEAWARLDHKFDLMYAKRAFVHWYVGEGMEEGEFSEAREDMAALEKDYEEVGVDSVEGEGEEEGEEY
# Sequence (P02554 whole entry, looked up): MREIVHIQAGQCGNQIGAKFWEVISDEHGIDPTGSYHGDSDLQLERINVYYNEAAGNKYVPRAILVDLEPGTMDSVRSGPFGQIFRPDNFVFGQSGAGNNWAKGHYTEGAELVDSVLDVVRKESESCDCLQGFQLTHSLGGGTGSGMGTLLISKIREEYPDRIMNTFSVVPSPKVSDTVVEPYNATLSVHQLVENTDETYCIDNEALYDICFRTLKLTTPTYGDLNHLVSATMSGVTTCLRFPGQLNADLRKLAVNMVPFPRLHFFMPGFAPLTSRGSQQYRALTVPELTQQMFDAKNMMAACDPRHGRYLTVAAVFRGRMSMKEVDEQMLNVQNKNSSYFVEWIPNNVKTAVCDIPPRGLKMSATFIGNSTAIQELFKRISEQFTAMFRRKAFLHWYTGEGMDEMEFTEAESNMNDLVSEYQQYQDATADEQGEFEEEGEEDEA
# Test: Inhibition of porcine brain tubulin polymerization at 3 uM after 1 hr by fluorescence assay
# Conditions: not given
row,Structure (SMILES),inhibition
1,COC(=O)Nc1nc2cc(C(=O)c3cccs3)ccc2[nH]1 [NOCODAZOLE],66.9%

# Test system: A549
# Test: Induction of apoptosis in human A549 cells assessed as early apoptotic cells at 1 uM after 48 hrs by annexin V-FITC and propidium iodide double staining based flow cytometric analysis (reference value: 0%)
# Assay type: functional
# Conditions: not given
row,Structure (SMILES),Activity
1,COC(=O)Nc1nc2cc(C(=O)c3cccs3)ccc2[nH]1 [NOCODAZOLE],11.71%
